Blank lines part the entries; values can stand above or below the molecule they belong to.
Tests used:
[1] = test system: Rattus norvegicus; assay: Anti-inflammatory activity in Carrageenan-induced paw edema in PO dosed rat model at 10 mg/kg assessed as inhibition of paw edema measured after 4 hrs relative to control; format: functional
[2] = test system: Rattus norvegicus; assay: Anti-inflammatory activity in Carrageenan-induced paw edema in PO dosed rat model at 20 mg/kg assessed as inhibition of paw edema measured after 4 hrs relative to control; format: functional
[3] = test system: Rattus norvegicus; assay: Anti-inflammatory activity in Carrageenan-induced rat paw edema in Wistar rat assessed as increase in paw edema volume at 1 hr; format: functional
[4] = test system: Rattus norvegicus; assay: Anti-inflammatory activity in Carrageenan-induced paw edema in Swiss albino rat assessed as inhibition relative to control; format: functional
[5] = test system: Rattus norvegicus; assay: Anti-inflammatory activity in Carrageenan-induced rat paw edema in Wistar rat assessed as increase in paw edema volume relative to control; format: functional
[6] = test system: Rattus norvegicus; assay: Anti-inflammatory activity in Carrageenan-induced rat paw edema in Wistar rat assessed as increase in paw edema volume at 2 hr; format: functional
[7] = target: T1, Prostaglandin G/H synthase 1 (Ovis aries, UniProt P05979); assay: Inhibition of ovine COX-1 by EIA method
T1 sequence (P05979 whole entry): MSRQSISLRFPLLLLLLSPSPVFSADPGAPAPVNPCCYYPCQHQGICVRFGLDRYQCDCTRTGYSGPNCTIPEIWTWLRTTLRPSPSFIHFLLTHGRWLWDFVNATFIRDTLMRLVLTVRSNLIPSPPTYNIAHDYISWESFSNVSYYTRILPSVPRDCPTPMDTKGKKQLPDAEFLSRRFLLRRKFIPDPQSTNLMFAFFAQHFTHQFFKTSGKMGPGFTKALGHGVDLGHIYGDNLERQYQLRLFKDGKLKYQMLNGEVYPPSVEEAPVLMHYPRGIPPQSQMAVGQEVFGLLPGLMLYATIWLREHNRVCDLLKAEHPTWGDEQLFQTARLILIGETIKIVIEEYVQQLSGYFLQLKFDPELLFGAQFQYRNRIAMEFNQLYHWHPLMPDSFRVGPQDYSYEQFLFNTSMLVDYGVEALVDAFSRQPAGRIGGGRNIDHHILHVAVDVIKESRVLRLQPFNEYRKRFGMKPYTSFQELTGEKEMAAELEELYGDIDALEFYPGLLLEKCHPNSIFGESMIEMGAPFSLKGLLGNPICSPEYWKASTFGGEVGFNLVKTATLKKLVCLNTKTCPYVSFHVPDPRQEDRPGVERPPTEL

[8] = test system: Rattus norvegicus; assay: Anti-inflammatory activity in Carrageenan-induced rat paw edema in Wistar rat assessed as increase in paw edema volume at 2 hr relative to control; format: functional
[9] = test system: Rattus norvegicus; assay: Anti-inflammatory activity in Carrageenan-induced rat paw edema in Wistar rat assessed as increase in paw edema volume at 4 hr relative to control; format: functional
[10] = test system: Rattus norvegicus; assay: Anti-inflammatory activity in Carrageenan-induced paw edema in Wistar rat assessed as inhibition of paw edema; format: functional
[11] = target: Prostaglandin G/H synthase 1 (Homo sapiens, UniProt P23219); assay: Inhibition of COX-1 (unknown origin) at 40 uM relative to control
[12] = test system: Rattus norvegicus; assay: Anti-inflammatory activity in Carrageenan-induced rat paw edema in Wistar rat assessed as increase in paw edema volume (reference value: 1.66 +/- 0.01); format: functional
[13] = test system: Rattus norvegicus; assay: Anti-inflammatory activity in Carrageenan-induced rat paw edema in Wistar rat assessed as increase in paw edema volume at 4 hr; format: functional
[14] = test system: Rattus norvegicus; assay: Anti-inflammatory activity in Carrageenan-induced rat paw edema in Wistar rat assessed as increase in paw edema volume at 1 hr relative to control; format: functional
[15] = test system: Mus musculus; assay: Anti-inflammatory activity against Carrageenan-induced paw edema in mouse model assessed as inhibition of edema at 100 mg/kg measured after 4 hrs relative to control; format: functional; set-up: scale not given: the % may be the effect or the level left
[16] = test system: Rattus norvegicus; assay: Ulcerogenic activity in Swiss albino Wistar rat assessed as ulcer lesion score at 100 mg/kg, po; format: functional
[17] = test system: RAW264.7; assay: Anti-inflammatory activity in mouse RAW264.7 cells assessed as LPS-induced reduction in NO production measured after 24 hrs; format: functional, cell-based; conditions: RAW264.7, 24 h
[18] = test system: RAW264.7; assay: Anti-inflammatory activity in mouse RAW264.7 cells assessed as inhibition of LPS-induced NO production measured after 24 hrs; format: functional, cell-based; conditions: RAW264.7, 24 h
[19] = test system: Rattus norvegicus; assay: Anti-inflammatory activity in Carrageenan-induced paw edema in Wistar albino rat assessed as inhibition of edema measured after 5 hr relative to control; format: functional; set-up: scale not given: the % may be the effect or the level left
[20] = test system: Rattus norvegicus; assay: Anti-inflammatory activity in Carrageenan-induced paw edema in Wistar albino rat assessed as inhibition of edema measured after 1 hr relative to control; format: functional; set-up: scale not given: the % may be the effect or the level left
[21] = target: T2, Prostaglandin G/H synthase 2 (Homo sapiens, UniProt P35354); assay: Inhibition of human COX-2 assessed as by fluorescence based microplate reader assay
T2 sequence (P35354 whole entry): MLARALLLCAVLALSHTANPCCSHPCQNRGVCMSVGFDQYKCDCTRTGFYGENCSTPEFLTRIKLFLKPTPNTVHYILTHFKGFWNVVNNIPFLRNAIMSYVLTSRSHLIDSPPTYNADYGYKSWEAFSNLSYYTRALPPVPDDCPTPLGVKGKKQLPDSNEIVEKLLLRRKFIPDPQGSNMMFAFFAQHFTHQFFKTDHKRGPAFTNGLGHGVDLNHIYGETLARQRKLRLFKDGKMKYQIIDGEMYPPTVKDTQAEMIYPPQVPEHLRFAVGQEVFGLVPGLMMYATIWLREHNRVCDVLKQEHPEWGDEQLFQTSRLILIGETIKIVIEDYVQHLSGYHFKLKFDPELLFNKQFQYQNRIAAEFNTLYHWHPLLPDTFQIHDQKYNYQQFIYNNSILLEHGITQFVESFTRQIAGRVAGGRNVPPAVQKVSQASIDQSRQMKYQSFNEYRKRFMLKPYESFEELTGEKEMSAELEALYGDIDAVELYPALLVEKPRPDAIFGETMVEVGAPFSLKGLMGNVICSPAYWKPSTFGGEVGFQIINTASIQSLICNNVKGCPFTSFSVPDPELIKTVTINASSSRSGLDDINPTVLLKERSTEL

[22] = test system: Rattus norvegicus; assay: Anti-inflammatory activity in Carrageenan-induced paw edema in Wistar albino rat assessed as inhibition of edema measured after 3 hr relative to control; format: functional; set-up: scale not given: the % may be the effect or the level left
[23] = test system: Rattus norvegicus; assay: Anti-inflammatory activity in Carrageenan-induced paw edema in Wistar albino rat assessed as inhibition of paw edema measured after 1 hr relative to control; format: functional
[24] = test system: Rattus norvegicus; assay: Anti-inflammatory activity against Carrageenan-induced paw edema in Wistar albino rat ulcerogenic activity assessed as reduction in severity index; format: functional
[25] = test system: Rattus norvegicus; assay: Anti-inflammatory activity in Carrageenan-induced paw edema in Wistar albino rat assessed as inhibition of paw edema measured after 3 hr relative to control; format: functional
[26] = test system: Rattus norvegicus; assay: Anti-inflammatory activity in Carrageenan-induced paw edema in Wistar albino rat assessed as inhibition of paw edema measured after 2 hr relative to control; format: functional
[27] = test system: Rattus norvegicus; assay: Anti-inflammatory activity in Carrageenan-induced paw edema in PO dosed Swiss albino rat model at 10 mg/kg assessed as inhibition in volume of edema measured after 1 hrs relative to control; format: functional
[28] = test system: Rattus norvegicus; assay: Anti-inflammatory activity in Carageenan-induced foot paw edema in Sprague-Dawley rat at 50 mg/kg assessed as reduction in paw edema volume relative to control; format: functional; set-up: scale not given: the % may be the effect or the level left
[29] = test system: Rattus norvegicus; assay: Anti-inflammatory activity in Carrageenan-induced paw edema in Wistar albino rat assessed as reduction in paw edema measured after 1 hr relative to control; format: functional; set-up: scale not given: the % may be the effect or the level left
[30] = test system: Rattus norvegicus; assay: Anti-inflammatory activity in Carrageenan-induced paw edema in Wistar albino rat assessed as reduction in paw edema measured after 2 hr relative to control; format: functional; set-up: scale not given: the % may be the effect or the level left
[31] = test system: Rattus norvegicus; assay: Anti-inflammatory activity in Carrageenan-induced paw edema in Wistar albino rat assessed as reduction in paw edema measured after 3 hr relative to control; format: functional; set-up: scale not given: the % may be the effect or the level left

Sequence of Prostaglandin G/H synthase 1 (Homo sapiens, UniProt P23219) (P23219 whole entry): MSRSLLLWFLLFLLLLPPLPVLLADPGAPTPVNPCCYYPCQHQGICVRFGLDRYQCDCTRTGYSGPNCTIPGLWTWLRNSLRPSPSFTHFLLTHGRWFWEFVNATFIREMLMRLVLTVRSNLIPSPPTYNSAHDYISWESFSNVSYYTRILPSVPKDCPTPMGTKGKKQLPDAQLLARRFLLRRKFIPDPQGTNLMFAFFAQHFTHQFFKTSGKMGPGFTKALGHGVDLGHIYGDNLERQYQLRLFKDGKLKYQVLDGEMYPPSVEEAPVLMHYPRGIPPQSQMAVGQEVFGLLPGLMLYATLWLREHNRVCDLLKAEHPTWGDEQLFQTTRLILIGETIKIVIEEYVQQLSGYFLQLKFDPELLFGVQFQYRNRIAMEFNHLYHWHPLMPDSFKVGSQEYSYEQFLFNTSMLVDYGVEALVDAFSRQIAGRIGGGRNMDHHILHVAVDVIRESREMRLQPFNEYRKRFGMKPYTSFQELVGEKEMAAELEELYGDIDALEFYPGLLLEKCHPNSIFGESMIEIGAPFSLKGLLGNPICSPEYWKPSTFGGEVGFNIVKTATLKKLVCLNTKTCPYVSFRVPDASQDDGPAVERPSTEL

SMILES: Cc1nn(-c2ccccc2)c2c1C(c1ccc([N+](=O)[O-])cc1)N1C=CC=NC1=N2 (stereo not given)
- inhibition in vivo at 10 mg/kg [1]: 73%
- inhibition in vivo at 20 mg/kg [2]: 80%

- IC50 [7]: 28.4 µM
- inhibition [11]: 73.4%
SMILES: C[C@H](NC(=O)c1nc2c(cnn2-c2ccccc2)c(=O)[nH]1)c1ccccc1
- Activity [3]: 1.5 mL
- inhibition (INH) [4]: 51%
- inhibition (INH) [5]: 64%
- Activity [6]: 1.69 mL
- inhibition (INH) [8]: 65%
- inhibition (INH) [9]: 64%
- ED50 [10]: 7.6 mg/kg
- Activity [12]: 1.05 mL
- Activity [13]: 2.01 mL
- inhibition (INH) [14]: 64%

SMILES: O=C(NCn1c(-c2ccccc2Cl)nc2ccccc21)c1ccc(Cl)cc1
- Activity [15]: 62.5%
- Activity [16]: 13.53 mm

- IC50 [17]: 7.41 µM
- IC50 [18]: 15.4 µM
SMILES: COc1cc(-c2cc3ccccc3nc2C(=O)c2ccc(F)cc2)cc(OC)c1OC

- IC50 [21]: 0.16 µM
SMILES: CCOc1cc(C)nn1C(=O)CNc1ncnc2c1c(C)nn2-c1ccccc1
- Activity [19]: 90%
- Activity [20]: 82%
- Activity [22]: 94%

SMILES: Cc1ccccc1-c1nnc(Cn2c(CN3CCOCC3)nc3ccccc32)o1
- inhibition (INH) [23]: 62.29%
- Activity [24]: 0.32 mm
- inhibition (INH) [25]: 31.25%
- inhibition (INH) [26]: 68.31%

SMILES: Cc1c(-c2ccccc2)n(C(=O)c2ccccc2)c2ccc(S(C)(=O)=O)cc12
- inhibition in vivo at 10 mg/kg [27]: 73.1%

- IC50 [17]: 6.7 µM
SMILES: COc1ccc(C(=O)c2nc3ccccc3cc2-c2cc(OC)c(OC)c(OC)c2)cc1

SMILES: Cc1c(-c2ccccc2)n(C(=O)c2ccc(Cl)cc2)c2ccc(S(C)(=O)=O)cc12
- inhibition in vivo at 10 mg/kg [27]: 73.5%

- IC50 [7]: 0.044 µM
SMILES: CC1=C(c2ccc(C(=O)NNC(=S)Nc3ccccc3)cn2)SC2Nc3ccccc3N12 (stereo not given)
- Activity [28]: 79.5%

SMILES: Clc1ccccc1-c1nnc(Cn2c(CN3CCOCC3)nc3ccccc32)o1
- Activity [29]: 38.54%
- Activity [30]: 67.12%
- Activity [24]: 0.28 mm
- Activity [31]: 74.17%
